Measured values as given in US8546611B2 (priority 2008, dated 2013).
Read-outs that look alike come from different tables or passages of the source.

Columns and labels:
[1] = system: erythroid cells isolated from the bone marrow of laboratory mice males; details: feed with succinic acid 20 mg/kg body wt., not irradiated, norm 5.0±1.0
Method: The test for genotoxicity was performed on young laboratory mice males (18-20 g; 6 animals in each group). […] The control animals were given water.

Wistar rat males = details: 1.5 ml of 1% succinic acid perorally 10 min prior; for Eosinophils, 6 h after / Lymphocytes, 6 h after / Number of leukocytes in 1 μl of blood, 6 h after / Segmentated cells, 6 h after: 6 h after immobilization; for Eosinophils, before / Lymphocytes, before / Number of leukocytes in 1 μl of blood, before / Segmentated cells, before: at the moment of immobilization
Method: Examples, illustrating the method invented, are presented below. […] SA is tested on rats endured an immobilization stress; the parameter tested is lymphocytic composition of blood, which is determined before and after stress in a blood smear taken from the caudal vein. […] A detailed description of the testing technique is given in Example 13.
The animals were fixed while lying flat on their back, with their legs secured. […] Blood was taken from the caudal vein: 10 μl for counting blood corpuscles and 20 μl for preparing a smear with its subsequent staining by Romanovsky-Giemsa).
First group: 10 min prior immobilization, the animals were injected (perorally, with the help of a stomach pump) with 1.5 ml of 1% starch solution. […] Blood was taken from the caudal vein at the moment of immobilization and 6 hours later, and stained blood smears were prepared to calculate the leukogram.

[2] = system: patients with cardiac insufficiency; details: for patients of functional class I, day 30 / patients of functional class II, day 30 / patients of functional class III, day 30 / patients of functional class IV, day 30 / patients of functional class I, day 60 / patients of functional class II, day 60 / patients of functional class III, day 60 / patients of functional class IV, day 60 / patients of functional class I, day 90 / patients of functional class II, day 90 / patients of functional class III, day 90 / patients of functional class IV, day 90: 100 mg twice per day with standard therapy; for patients of functional class I, day 30 / patients of functional class II, day 30 / patients of functional class III, day 30 / patients of functional class IV, day 30: after 30 days; for patients of functional class I, day 60 / patients of functional class II, day 60 / patients of functional class III, day 60 / patients of functional class IV, day 60: after 60 days; for patients of functional class I, day 90 / patients of functional class II, day 90 / patients of functional class III, day 90 / patients of functional class IV, day 90: after 90 days; for patients of functional class I, day 0 / patients of functional class II, day 0 / patients of functional class III, day 0 / patients of functional class IV, day 0: 100 mg twice per day, 3 months, with standard therapy, before treatment
Method: The test for cardiotonic activity of product samples was performed by measuring the dynamics of alteration of the functional class of cardiac failure. The functional class can be determined quite accurately by analyzing the everyday life activities according to a specific activity scale. The authors of this technique suppose that the criteria developed by NYHA (New York Heart Association) cannot provide accurate determination of functional class, since widely used terms, such as “everyday physical activity”, “sub-everyday activity” are not specific. On the basis of multiple tests, in which patients exercised on a treadmill, the authors calculated a scale of metabolic expenses for each kind of life activity (see Goldman L., Hashimoto B., Cook F. et al., Comparative reproducibility and validity of systems for assessing cardiovascular functional class: advantages of a new specific activity scale (1981) Circulation 64 (6):1227-34). This inquiry is designed to be used by medical personnel, interviewing a patient. After calculating the sum of possible energy expenses, the functional class of the patient is determined according to the summary criteria of the specific activity scale (Table 6).
In the tests, the patient groups were formed so that the people of the same functional class were equally distributed among different groups. Severe patients (of IV functional class; those having oncological diseases or suffered myocardial infarction/stroke to the brain 60 days or less before) were not admitted to the tests. The distribution of patients among groups was governed by a random number generator. The tests were carried out by the following protocol. Each patient took 100 mg of the preparation twice per day (in the morning and after lunch) during 3 months—against the background of a standard therapy administered by a physician. […] All the samples and placebo were encoded before sending into the clinic, so none of those involved into the tests (patients, physicians, medical personnel and the manager of tests) was aware of the nature of samples.
The functional class of patients was determined several times: at the beginning of tests (before the formation of test groups) and after 30, 60 and 90 days of treatment with the test samples. The estimation was performed on the basis of the activity scale (Table 7).

white rat females = details: in vivo; for Total died: 14 days
[3] = system: erythroid cells isolated from the bone marrow of gamma-irradiated laboratory mice males; test: Radioprotective properties (micronucleus test after gamma irradiation); details: mice irradiated with gamma rays 1.3 Gy, then fed 48 h succinic acid 20 mg/kg body wt.; critical value 16±2

| Compound | Number of micronuclei per 2000 cells (genotoxicity) [1] | patients of functional class I, day 30 [2] | patients of functional class II, day 30 [2] | patients of functional class III, day 30 [2] | patients of functional class IV, day 30 [2] | patients of functional class I, day 60 [2] | patients of functional class II, day 60 [2] | patients of functional class III, day 60 [2] | patients of functional class IV, day 60 [2] | patients of functional class I, day 90 [2] | patients of functional class II, day 90 [2] | patients of functional class III, day 90 [2] | patients of functional class IV, day 90 [2] | patients of functional class I, day 0 [2] | patients of functional class II, day 0 [2] | patients of functional class III, day 0 [2] | patients of functional class IV, day 0 [2] | Total died (white rat females; female, 5000 mg/kg) | Number of micronuclei per 2000 cells (radioprotective properties) [3] | died, 14 day (white rat females; female, 5000 mg/kg) | other results |
| --- | --- | --- | --- | --- | --- | --- | --- | --- | --- | --- | --- | --- | --- | --- | --- | --- | --- | --- | --- | --- | --- |
| O=C(O)CCC(=O)O [Example 1, succinic acid, reference compound] | 5.5 ± 0.8 | 8 | 7 | 5 | 0 | 9 | 6 | 5 | 0 | 9 | 7 | 4 | 0 | 8 | 7 | 5 | 0 | 0 | 25.5 ± 1.0 |  | Eosinophils, 6 h after (Wistar rat males; listed as Ex. 1): 0%; Lymphocytes, 6 h after (Wistar rat males; listed as Ex. 1): 69 ± 5%; Number of leukocytes in 1 μl of blood, 6 h after (Wistar rat males; listed as Ex. 1): 7900; Segmentated cells, 6 h after (Wistar rat males; listed as Ex. 1): 29 ± 3%; Eosinophils, before (Wistar rat males; listed as Ex. 1): 2 ± 4%; Lymphocytes, before (Wistar rat males; listed as Ex. 1): 78 ± 4%; Number of leukocytes in 1 μl of blood, before (Wistar rat males; listed as Ex. 1): 5900; Segmentated cells, before (Wistar rat males; listed as Ex. 1): 21 ± 2%; animals died, extra test with doubled dose (white rat females; 10000 mg/kg): Not a single animal died |
| O=C(O)CCC(=O)O [Example 4, succinic acid] | 5.5 ± 1.0 | 8 | 7 | 5 | 0 | 9 | 9 | 3 | 0 | 13 | 6 | 1 | 0 | 8 | 7 | 5 | 0 | 3 | 12.5 ± 2.0 | 1 | Eosinophils, 6 h after (Wistar rat males; listed as Ex. 4): 1.5 ± 6%; Lymphocytes, 6 h after (Wistar rat males; listed as Ex. 4): 74 ± 8%; Number of leukocytes in 1 μl of blood, 6 h after (Wistar rat males; listed as Ex. 4): 7100; Segmentated cells, 6 h after (Wistar rat males; listed as Ex. 4): 24 ± 3%; Eosinophils, before (Wistar rat males; listed as Ex. 4): 2 ± 4%; Lymphocytes, before (Wistar rat males; listed as Ex. 4): 77 ± 4%; Number of leukocytes in 1 μl of blood, before (Wistar rat males; listed as Ex. 4): 5900; Segmentated cells, before (Wistar rat males; listed as Ex. 4): 21 ± 2%; died, 12 day (white rat females; female, 5000 mg/kg, 12 day): 1; died, 13 day (white rat females; female, 5000 mg/kg): 1 |
| O=C(O)CCC(=O)O [Example 5, succinic acid] | 5.0 ± 1.0 | 8 | 7 | 5 | 0 | 9 | 7 | 4 | 0 | 14 | 5 | 1 | 0 | 8 | 7 | 5 | 0 | 3 | 12.0 ± 1.2 | 1 | Eosinophils, 6 h after (Wistar rat males; listed as Ex. 5): 1.5 ± 8%; Lymphocytes, 6 h after (Wistar rat males; listed as Ex. 5): 75 ± 4%; Number of leukocytes in 1 μl of blood, 6 h after (Wistar rat males; listed as Ex. 5): 7200; Segmentated cells, 6 h after (Wistar rat males; listed as Ex. 5): 24 ± 3%; Eosinophils, before (Wistar rat males; listed as Ex. 5): 2 ± 6%; Lymphocytes, before (Wistar rat males; listed as Ex. 5): 76 ± 5%; Number of leukocytes in 1 μl of blood, before (Wistar rat males; listed as Ex. 5): 6000; Segmentated cells, before (Wistar rat males; listed as Ex. 5): 22 ± 4%; died, 13 day (white rat females; female, 5000 mg/kg): 2 |
| O=C(O)CCC(=O)O [Example 6, succinic acid] | 4.5 ± 1.0 | 10 | 6 | 4 | 0 | 11 | 6 | 3 | 0 | 14 | 5 | 1 | 0 | 8 | 7 | 5 | 0 | 3 | 12.5 ± 1.0 | 2 | Eosinophils, 6 h after (Wistar rat males; listed as Ex. 6): 1.0 ± 2%; Lymphocytes, 6 h after (Wistar rat males; listed as Ex. 6): 74 ± 6%; Number of leukocytes in 1 μl of blood, 6 h after (Wistar rat males; listed as Ex. 6): 7000; Segmentated cells, 6 h after (Wistar rat males; listed as Ex. 6): 25 ± 3%; Eosinophils, before (Wistar rat males; listed as Ex. 6): 2 ± 2%; Lymphocytes, before (Wistar rat males; listed as Ex. 6): 77 ± 5%; Number of leukocytes in 1 μl of blood, before (Wistar rat males; listed as Ex. 6): 5800; Segmentated cells, before (Wistar rat males; listed as Ex. 6): 21 ± 3%; died, 11 day (white rat females; female, 5000 mg/kg, 11 day): 1 |
| O=C(O)CCC(=O)O [Example 7, succinic acid] | 5.0 ± 1.0 | 9 | 6 | 5 | 0 | 13 | 5 | 2 | 0 | 15 | 4 | 1 | 0 | 8 | 7 | 5 | 0 | 4 | 11.5 ± 1.8 | 2 | Eosinophils, 6 h after (Wistar rat males; listed as Ex. 7): 1.5 ± 4%; Lymphocytes, 6 h after (Wistar rat males; listed as Ex. 7): 73 ± 6%; Number of leukocytes in 1 μl of blood, 6 h after (Wistar rat males; listed as Ex. 7): 7200; Segmentated cells, 6 h after (Wistar rat males; listed as Ex. 7): 26 ± 3%; Eosinophils, before (Wistar rat males; listed as Ex. 7): 2 ± 1%; Lymphocytes, before (Wistar rat males; listed as Ex. 7): 75 ± 7%; Number of leukocytes in 1 μl of blood, before (Wistar rat males; listed as Ex. 7): 6000; Segmentated cells, before (Wistar rat males; listed as Ex. 7): 23 ± 3%; died, 13 day (white rat females; female, 5000 mg/kg): 2 |
